Tests used:
A673 (Ewing's Sarcoma) [1] = assay: Bliss excess, mean over the matrix (fraction); higher = more synergy
Procedure, shortened: (§1)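 Cell lines in DMEM/F12 or RPMI with 10% FBS were plated in 1536-well plates, held 24 hours at 37°C, 5% CO2, then given two-drug dose matrices for 72 hours (DMSO typically 0.2%). Viability was read by CellTiter-Glo 2.0 luminescence and scaled as inhibition from 0 (vehicle wells) to 1 (blank wells). Combination Emax is the second-highest inhibition in the matrix; Bliss excess is observed combination effect minus expected EA + EB − EA·EB, EA and EB being single-agent effects.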

[2] = tested on: Hs-746T (Gastric Carcinoma); assay: as above
Procedure, shortened: as §1

[3] = tested on: LNZTA3WT4 (Low Grade Glioma); assay: as above
Procedure, shortened: as §1

[4] = tested on: NCI-H209 (Small Cell Lung Carcinoma); assay: as above
Procedure, shortened: as §1

[5] = tested on: SW1573 (Lung Adenocarcinoma); assay: as above
Procedure, shortened: as §1

A673 (Ewing's Sarcoma) [6] = assay: combination Emax (second highest fraction inhibited in the dose matrix, 72 h); higher = more inhibition; extreme values may be limits of the assay
Procedure, shortened: as §1

[7] = tested on: BE-13 (T-Lymphoblastic Leukemia); assay: as above
Procedure, shortened: as §1

CAL-72 (Osteosarcoma) = assay: as above
Procedure, shortened: as §1

[8] = tested on: ESS-1 (Other Solid Carcinomas); assay: as above
Procedure, shortened: as §1

EW-11 (Ewing's Sarcoma) = assay: as above
Procedure, shortened: as §1

[9] = tested on: HuCCT1 (Biliary Tract Carcinoma); assay: as above
Procedure, shortened: as §1

[10] = tested on: KMRC-20 (Kidney Carcinoma); assay: as above
Procedure, shortened: as §1

[11] = tested on: KYAE-1 (Esophageal Adenocarcinoma); assay: as above
Procedure, shortened: as §1

[12] = tested on: LS-123 (Colorectal Carcinoma); assay: as above
Procedure, shortened: as §1

NCI-H2052 (Mesothelioma) = assay: as above
Procedure, shortened: as §1

[13] = tested on: NUGC-4 (Gastric Carcinoma); assay: as above
Procedure, shortened: as §1

[14] = tested on: OE21 (Esophageal Squamous Cell Carcinoma); assay: as above
Procedure, shortened: as §1

[15] = tested on: SAS (Oral Cavity Carcinoma); assay: as above
Procedure, shortened: as §1

[16] = tested on: SW1710 (Bladder Carcinoma); assay: as above
Procedure, shortened: as §1

[17] = tested on: WSU-NHL (B-Cell Non-Hodgkin's Lymphoma); assay: as above
Procedure, shortened: as §1
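For Bliss excess, mean over the matrix in this document: after 72 h of two-drug dosing.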

| Structure (SMILES) | Bliss excess (A673 (Ewing's Sarcoma) [1]) | Bliss excess [2] | Bliss excess [3] | Bliss excess [4] | Bliss excess [5] | combination Emax (A673 (Ewing's Sarcoma) [6]) | combination Emax [7] | combination Emax (CAL-72 (Osteosarcoma)) | combination Emax [8] | combination Emax (EW-11 (Ewing's Sarcoma)) | combination Emax [9] | combination Emax [10] | combination Emax [11] | combination Emax [12] | combination Emax (NCI-H2052 (Mesothelioma)) | combination Emax [13] | combination Emax [14] | combination Emax [15] | combination Emax [16] | combination Emax [17] |
| --- | --- | --- | --- | --- | --- | --- | --- | --- | --- | --- | --- | --- | --- | --- | --- | --- | --- | --- | --- | --- |
| CC1(C)CCC(CN2CCN(c3ccc(C(=O)NS(=O)(=O)c4ccc(NCC5CCOCC5)c([N+](=O)[O-])c4)c(Oc4cnc5[nH]ccc5c4)c3)CC2)=C(c2ccc(Cl)cc2)C1 [Venetoclax] + Cc1cc2ncnn2cc1Nc1ncc2c(n1)n(C1CCOCC1)c(=O)n2C [AZD7648] (first compound max 1 µM, 7x7, partner max 10 µM) | -0.0124 | -0.0131 | -0.0353 | 0.0416 | -0.0609 | 0.597 | 0.529 | 0.643 | 0.886 | 0.558 | 0.284 | 0.288 | 0.176 | 0.313 | 0.381 | 0.232 | 0.206 | 0.256 | 0.248 | 0.869 |
| CC1(C)CCC(CN2CCN(c3ccc(C(=O)NS(=O)(=O)c4ccc(NCC5CCOCC5)c([N+](=O)[O-])c4)c(Oc4cnc5[nH]ccc5c4)c3)CC2)=C(c2ccc(Cl)cc2)C1 [Venetoclax] + Cn1cnc2c(F)c(Nc3ccc(Br)cc3Cl)c(C(=O)NOCCO)cc21 [Selumetinib] (first compound max 1 µM, 7x7, partner max 3 µM) | 0.0048 | -0.0192 | -0.0321 | 0.0379 | -0.0621 | 0.65 | 0.461 | 0.403 | 0.864 | 0.451 | 0.38 | 0.217 | 0.0726 | 0.374 | 0.213 | 0.499 | 0.337 | 0.368 | 0.216 | 0.745 |
